Test system: statin-treated patients with fasting TG ≥200 and <500 mg/dL and baseline hsCRP ≥2.0 mg/L
Assay: ANCHOR post-hoc subgroup: lipid parameters, lipoproteins, markers of oxidation and inflammation
Type: in vivo, human
Conditions: for reduction of TG compared with placebo: printed as a reduction
Procedure: A multi-center, placebo-controlled, randomized, double-blind, 12-week study is performed to evaluate the efficacy and safety of >96% E-EPA in patients with fasting triglyceride levels ≥200 mg/dl and <500 mg/dl despite statin therapy (the mean of two qualifying entry values needs to be ≥185 mg/dl and at least one of the values needs to be ≥200 mg/dl). The primary objective of the study is to determine the efficacy of >96% E-EPA 2 g daily and 4 g daily, compared to placebo, in lowering fasting TG levels in patients with high risk for cardiovascular disease and with fasting TG levels ≥200 mg/dL and <500 mg/dL, despite treatment to LDL-C goal on statin therapy.
The population for this study is men and women >18 years of age with a body mass index ≤45 kg/m^2 with fasting TG levels greater than or equal to 200 mg/dl and less than 500 mg/dl and on a stable does of statin therapy (with or without ezetimibe). The statin must be atorvastatin, rosuvastatin or simvastatin. The dose of statin must be stable for ≥4 weeks prior to the LDL-C/TG baseline qualifying measurement for randomization. The statin dose will be optimal such that the patients are at their LDL-C goal at the LDL-C/TG baseline qualifying measurements. The same statin at the same dose will be continued until the study ends.
At the end of the 4-week diet and lifestyle stabilization period or the 6-week diet and stabilization and washout period, eligible patients will enter the 2-week LDL-C and TG qualifying period and will have their fasting LDL-C and TG levels measured at Visit 2 (Week-2) and Visit 3 (Week-1). Eligible patients must have an average fasting LDL-C level ≥40 mg/dL and <100 mg/dL and an average fasting TG level ≥200 mg/dL and <500 mg/dL to enter the 12-week double-blind treatment period. The LDL-C and TG levels for qualification will be based on the average (arithmetic mean) of the Visit 2 (Week-2) and Visit 3 (Week-1) values. If a patient's average LDL-C and/or TG levels from Visit 2 and Visit 3 fall outside the required range for entry into the study, an additional fasting lipid profile can be collected 1 week later at Visit 3.1. If a third sample is collected at Visit 3.1, entry into the study will be based on the average (arithmetic mean) of the values from Visit 3 and Visit 3.1.
After confirmation of qualifying fasting LDL-C and TG values, eligible patients will enter a 12-week, randomized, double-blind treatment period. At Visit 4 (Week 0), patients will be randomly assigned to 1 of the following treatment groups: • >96% E-EPA 2 g daily, • >96% E-EPA 4 g daily, or • Placebo.
>96% E-EPA is provided in 1 g liquid-filled, oblong, gelatin capsules. The matching placebo capsule is filled with light liquid paraffin and contains 0 g of >96% E-EPA. >96% E-EPA capsules are to be taken with food (i.e. with or at the end of a meal).
During the double-blind treatment period, patients will take 2 capsules (>96% E-EPA or matching placebo) in the morning and 2 capsules in the evening for a total of 4 capsules per day. • Patients in the >96% E-EPA 2 g/day treatment group will receive 1>96% E-EPA 1 g capsule and 1 matching placebo capsule in the morning and in the evening. • Patients in the >96% E-EPA 4 g/day treatment group will receive 2>96% E-EPA 1 g capsules in the morning and evening.
For TG, TC, HDL-C, LDL-C, calculated non-HDL-C, and VLDL-C, baseline will be defined as the average of Visit 4 (Week 0) and the preceding lipid qualifying visit (either Visit 3 [Week-1] or if it occurs, Visit 3.1) measurements. Baseline for all other efficacy parameters will be the Visit 4 (Week 0) measurement.
For TG, TC, HDL-C, LDL-C, calculated non-HDL-C, and VLDL-C, Week 12 endpoint will be defined as the average of Visit 6 (Week 11) and Visit 7 (Week 12) measurements.
Week 12 endpoint for all other efficacy parameters will be the Visit 7 (Week 12) measurement. […]

[1] = 4 g/day vs placebo, baseline to week 12, Hodges-Lehmann median
[2] = 4 g/day vs placebo, baseline to week 12, Hodges-Lehmann median, listed as EPA-E
[3] = 4 g/day, baseline to week 12, median

Structure (SMILES): CC/C=C\C/C=C\C/C=C\C/C=C\C/C=C\CCCC(=O)OCC [Icosapent Ethyl, ethyl eicosapentaenoate]
- Apo B Median Difference in % Change From Baseline vs Placebo [1]: −7.4%
- Apo C-III Median Difference in % Change From Baseline vs Placebo [1]: −16.0%
- HDL-C Median Difference in % Change From Baseline vs Placebo [1]: −5.2%
- ICAM-1 Median Difference in % Change From Baseline vs Placebo [1]: +1.1%
- IL-6 Median Difference in % Change From Baseline vs Placebo [1]: −4.2%
- LDL-C Median Difference in % Change From Baseline vs Placebo [1]: −5.0%
- Lp-PLA2 Median Difference in % Change From Baseline vs Placebo [1]: −19.6%
- RLP-C Median Difference in % Change From Baseline vs Placebo [1]: −23.0%
- TC Median Difference in % Change From Baseline vs Placebo [1]: −11.1%
- TG Median Difference in % Change From Baseline vs Placebo [1]: −19.9%
- VLDL-C Median Difference in % Change From Baseline vs Placebo [1]: −21.0%
- VLDL-TG Median Difference in % Change From Baseline vs Placebo [1]: −22.9%
- Apo C-III Median Difference in % Change From Baseline vs Placebo [2]: −16%
- TG Median Difference in % Change From Baseline vs Placebo [2]: −20%
- hsCRP Median Difference in % Change From Baseline vs Placebo [2]: −17.9%
- Apo B Change From Baseline, % [3]: −0.5%
- Apo C-III Change From Baseline, % [3]: −7.7%
- HDL-C Change From Baseline, % [3]: −2.1%
- ICAM-1 Change From Baseline, % [3]: +3.3%
- IL-6 Change From Baseline, % [3]: −1.6%
- LDL-C Change From Baseline, % [3]: +2.8%
- Lp-PLA2 Change From Baseline, % [3]: −13.3%
- Non-HDL-C Change From Baseline, % [3]: −4.5%
- Ox-LDL Change From Baseline, % [3]: −2.9%
- RLP-C Change From Baseline, % [3]: −26.3%
- TC Change From Baseline, % [3]: −2.6%
- VLDL-C Change From Baseline, % [3]: −11.8%
- hsCRP Change From Baseline, % [3]: −10.5%
- reduction of TG compared with placebo [3]: 19.9%
- reduction of TG compared with placebo (4 g/day, baseline to week 12, median, listed as EPA-E): about 19.9%
- Apo B End of Treatment (4 g/day, week 12, median): 93.5 mg/dL
- Apo C-III End of Treatment (4 g/day, week 12, median): 14.0 mg/dL
- Apo C-III End of Treatment (Table 3) (4 g/day, week 12, median): 14 mg/dL
- HDL-C End of Treatment (4 g/day, week 12, median): 36.0 mg/dL
- ICAM-1 End of Treatment (4 g/day, week 12, median): 300.5 ng/mL
- IL-6 End of Treatment (4 g/day, week 12, median): 2.8 pg/mL
- LDL-C End of Treatment (4 g/day, week 12, median): 83.5 mg/dL
- Lp-PLA2 End of Treatment (4 g/day, week 12, median): 163.0 ng/mL
- Non-HDL-C End of Treatment (4 g/day, week 12, median): 125.0 mg/dL
- Ox-LDL End of Treatment (4 g/day, week 12, median): 54.1 U/L
- TC End of Treatment (4 g/day, week 12, median): 166.0 mg/dL
- VLDL-C End of Treatment (4 g/day, week 12, median): 38.0 mg/dL
- VLDL-TG End of Treatment (4 g/day, week 12, median): 154.5 mg/dL
- hsCRP End of Treatment (4 g/day, week 12, median): 3.7 mg/L
- TG End of Treatment (4 g/day, week 12, median, fasting): 220.8 mg/dL

From patent US11058661B2, “Compositions and methods for lowering triglycerides in a subject on concomitant statin therapy and having hsCRP levels of at least about 2 mg/L” (priority 2018, dated 2021)
